The data set can be described thus: Comparison of solubility of the precursor compound according to the kind of reaction solvent (observation with the naked eye). As to conditions: for State of the solution when the temperature dropped to room temperature: t-amyl alcohol, then dropped to room temperature. The data set is classed as physicochemical. As for the experimental part: The solubility of FP-CIT, FDG, FLT, FMISO, and FC119S at room temperature and at 60° C. according to the different solvents of methyl 2-hydroxyisobutyrate solvent of the present invention and t-amyl alcohol solvent of the prior art (KR 10-0789847) was investigated.

[1] abbreviates: reaction solvent methyl 2-hydroxyisobutyrate (present invention), precursor amount 4-20 mg, naked eye.
[2] abbreviates: reaction solvent methyl 2-hydroxyisobutyrate (present invention), room temperature, precursor amount 4-20 mg, naked eye.
Setting [3] is: reaction solvent t-amyl alcohol (KR 10-0789847), precursor amount 4-20 mg, naked eye.
Setting [4] is: reaction solvent t-amyl alcohol (KR 10-0789847), room temperature, precursor amount 4-20 mg, naked eye.

The structures appear in SMILES notation. “Also recorded” adds a separate entry of the source. Read-outs that look alike come from different tables or passages of the source.

For `CC(=O)OC[C@H]1O[C@@H](OC(C)=O)[C@@H](OS(=O)(=O)C(F)(F)F)[C@@H](OC(C)=O)[C@@H]1OC(C)=O` [FDG, 1,3,4,6-tetra-O-acetyl-2-O-trifluoro-methanesulfonyl-beta-D-mannopyranose], the “Solubility 60° C.” value is, setting by setting: under setting [1], “dissolved”; under setting [3], “dissolved”. Further, the “Solubility Room temperature” value is on record as “dissolved” under setting [2] and “undissolved” under setting [4]. Moreover, under “dissolved at 60° C.”, the “State of the solution when the temperature dropped to room temperature” value is listed as “precipitated again as solids”.
Regarding `COC(=O)[C@H]1[C@@H](c2ccc(I)cc2)C[C@@H]2CC[C@H]1[N+]21CCC1.Cc1ccc(S(=O)(=O)[O-])cc1` [FP-CIT, (1′R, 2′S, 3′S, 5′S)-3′-(4-iodophenyl)-2′-(methoxycarbonyl)spiro[azetidine-1,8′-bicyclo[3,2,1]octan]-1-ium p-toluenesulfonate], the “Solubility 60° C.” value is, setting by setting: under setting [1], “dissolved”; under setting [3], “dissolved”. Further, the “Solubility Room temperature” value is given as “completely dissolved” (reaction solvent methyl 2-hydroxyisobutyrate (present invention), room temperature, precursor amount 4-20 mg, naked eye, p-toluenesulfonate) and “undissolved” under setting [4]. Also, for the setting “dissolved at 60° C.”, the “State of the solution when the temperature dropped to room temperature” value is on record as “precipitated again as solids”.
In the case of `Cc1cn([C@H]2C[C@H](OS(=O)(=O)c3ccc([N+](=O)[O-])cc3)[C@@H](COC(c3ccccc3)(c3ccccc3)c3ccccc3)O2)c(=O)n(C(=O)OC(C)(C)C)c1=O` [FLT, 3-N-Boc-5′-O-trityl-3′-O-nosyl-thymidine], the “Solubility Room temperature” value is on record as “undissolved” and the “State of the solution after cooling to room temperature” value is reported as “remained as a solution”.
Consider `CN(C(=O)OC(C)(C)C)c1ccc(-c2nc3ccc(OC[C@@H](COS(=O)(=O)c4ccc([N+](=O)[O-])cc4)OC4CCCCO4)cc3s2)cn1` (some centres unmarked) [FC119S], for which the “State of the solution after cooling to room temperature” value (methyl-2-hydroxyisobutyrate, dissolved at 60° C., then cooled to room temperature) was “remained as a solution”. The “Solubility 60° C.” value is “dissolved” under setting [1] and “not dissolved; also recorded: undissolved” under setting [3]. For the same compound, the “Solubility Room temperature” value is, setting by setting: under setting [2], “undissolved”; under setting [4], “undissolved”.

These data come from patent US20190202820A1, “PROCESS FOR PRODUCING FLUORINATED COMPOUNDS USING ALCOHOL SOLVENT HAVING CARBONYL GROUP” (FUTURECHEM CO., LTD., priority 2018, published 2019).
